Measurements reported in patent publication US11304957B2, “Substituted quinazolines for inhibiting kinase activity” (NeuPharma, Inc., priority 2013, dated 2022).

Assays:
EGFR (ErbB1) T790M L858R = EGFR (ErbB1) T790M L858R (Homo sapiens (Human), UniProt P00533, L858R/T790M); assay: Z'-LYTE kinase inhibition assay, EGFR L858R/T790M; assay type: biochemical; details: for inhibition at 0.0137 µM: read-out: % inhibition EGFR L858R/T790M (Compound at 0.0137 μM)
Procedure: Inhibitory activities of compounds against BTK, EGFR and EGFR mutants (EGFR L858R, EGFR T790M, EGFR L858R/T790M), FGFR1, FGFR2, JAK2, JAK3 and KDR were measured by Invitrogen using Z'-LYTE® Method as briefly described in the following. Test Compounds are screened in 1% DMSO (final) in the well. For 10 point titrations, 3-fold serial dilutions are conducted from the starting concentration. All ATP Solutions are diluted to a 4× working concentration in Kinase Buffer (50 mM HEPES pH 7.5, 0.01% BRIJ-35, 10 mM MgCl2, 1 mM EGTA). Peptide/Kinase Mixtures are diluted to a 2× working concentration in the appropriate Kinase Buffers as described below. (iv) Peptide/Kinase Mixtures for Measurement of EGFR (ErbB1) T790M L858R: The 2×EGFR (ErbB1) […] mixture is prepared in 50 mM HEPES pH 6.5, 0.01% BRIJ-35, 10 mM MgCl2, 1 mM EGTA, 0.02% NaN3. […] After the 1 hour Kinase Reaction incubation, 5 μL of a 1:64 dilution of Development Reagent B is added. Reaction starts by 30-second shaking of mixture consisting of 2.5 μL 4× test compound, 5 μL 2× kinase reaction mixture and 2.5 μL 4×ATP Solution on Bar-coded Corning, low volume NBS, black 384-well plate (Corning Cat. #3676). Then the mixture is incubated for 60-minute at room temperature for the kinase reaction, followed by addition of 5 μL of a 1:1024 dilution of development reagent A and 30-second plate shake. The mixture is then incubated for another 60-minute at room temperature for development reaction. Finally fluorescence is read by plate reader. To determine IC50 of a compound against EGFR, EGFR mutant and other kinases, a series of concentrations of the compound were tested for the inhibition.

H1975 tumor xenograft = assay: Inhibition of tumor growth in H1975 xenograft model; assay type: in vivo, BALB/c female nude mice; details: Table 7, 60 mg/kg, oral, QD × 14; for Tumor Volume Pre-treatment: baseline
Procedure: H1975 cells were implanted in BALB/c female nude mice and grown as tumor xenografts. When tumors achieved 120-200 mm^3, mice were assigned into treatment and control groups using randomized block design based upon their tumor volumes. Each group contained 6 tumor-bearing mice. Tumors were measured twice weekly in two dimensions using a caliper, and the tumor volume was calculated from two-dimensional measurements using the equation V=0.5×a×b^2 where a and b are the long and short diameters of the tumor, respectively. Relative tumor volume (RTV) was defined as TVt/TVi, the ratio of the volume on a given day (TVt) and the volume at the start of treatment (TVi). Relative tumor growth rate (T/C) was defined as RTVT/RTVC, the ratio of relative tumor volume of treatment group (RTVT) and relative tumor volume of control group (RTVC) on a given day. Inhibition of tumor growth in a H1975 tumor xenograft model by some compounds is shown below in Table 6 and Table 7.

EGFR (ErbB1) = EGFR (ErbB1) (Homo sapiens (Human), UniProt P00533); assay: Z'-LYTE kinase inhibition assay, EGFR (ErbB1); assay type: biochemical
Sequence of EGFR (ErbB1) (P00533 25-1210): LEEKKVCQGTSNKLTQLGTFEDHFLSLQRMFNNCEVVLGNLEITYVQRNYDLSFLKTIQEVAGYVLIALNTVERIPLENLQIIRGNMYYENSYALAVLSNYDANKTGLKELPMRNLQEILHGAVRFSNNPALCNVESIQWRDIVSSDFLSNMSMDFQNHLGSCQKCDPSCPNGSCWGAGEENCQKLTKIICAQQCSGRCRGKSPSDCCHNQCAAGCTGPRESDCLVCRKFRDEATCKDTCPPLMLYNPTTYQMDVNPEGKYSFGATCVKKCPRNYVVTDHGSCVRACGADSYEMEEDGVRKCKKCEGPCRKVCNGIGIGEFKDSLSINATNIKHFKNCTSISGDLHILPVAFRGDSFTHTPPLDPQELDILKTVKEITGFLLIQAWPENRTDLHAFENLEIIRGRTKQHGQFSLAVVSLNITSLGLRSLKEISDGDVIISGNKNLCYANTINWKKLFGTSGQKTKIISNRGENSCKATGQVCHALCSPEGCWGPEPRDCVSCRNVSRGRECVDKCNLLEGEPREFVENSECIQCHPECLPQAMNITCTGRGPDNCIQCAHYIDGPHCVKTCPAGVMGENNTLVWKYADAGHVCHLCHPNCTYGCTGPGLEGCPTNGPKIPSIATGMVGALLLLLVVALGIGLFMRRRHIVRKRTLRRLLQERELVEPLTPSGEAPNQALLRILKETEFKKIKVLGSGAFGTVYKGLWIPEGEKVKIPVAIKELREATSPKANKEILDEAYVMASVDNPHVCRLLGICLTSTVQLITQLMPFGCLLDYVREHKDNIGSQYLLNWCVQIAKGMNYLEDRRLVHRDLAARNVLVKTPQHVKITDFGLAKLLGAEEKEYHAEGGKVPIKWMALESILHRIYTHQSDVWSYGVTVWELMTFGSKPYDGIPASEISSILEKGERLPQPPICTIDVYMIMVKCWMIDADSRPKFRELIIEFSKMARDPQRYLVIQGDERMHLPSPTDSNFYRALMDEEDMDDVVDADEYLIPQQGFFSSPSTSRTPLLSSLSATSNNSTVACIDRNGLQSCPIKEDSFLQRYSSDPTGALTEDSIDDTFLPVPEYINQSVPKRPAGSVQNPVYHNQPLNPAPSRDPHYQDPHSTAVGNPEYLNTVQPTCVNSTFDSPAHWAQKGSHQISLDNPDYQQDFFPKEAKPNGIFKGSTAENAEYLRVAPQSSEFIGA
Procedure: Inhibitory activities of compounds against BTK, EGFR and EGFR mutants (EGFR L858R, EGFR T790M, EGFR L858R/T790M), FGFR1, FGFR2, JAK2, JAK3 and KDR were measured by Invitrogen using Z'-LYTE® Method as briefly described in the following. Test Compounds are screened in 1% DMSO (final) in the well. For 10 point titrations, 3-fold serial dilutions are conducted from the starting concentration. All ATP Solutions are diluted to a 4× working concentration in Kinase Buffer (50 mM HEPES pH 7.5, 0.01% BRIJ-35, 10 mM MgCl2, 1 mM EGTA). Peptide/Kinase Mixtures are diluted to a 2× working concentration in the appropriate Kinase Buffers as described below. (i) Peptide/Kinase Mixtures for Measurement of EGFR (ErbB1): The 2×EGFR (ErbB1)/[…] mixture is prepared in 50 mM HEPES pH 7.5, 0.01% BRIJ-35, 10 mM MgCl2, 4 mM MnCl2, 1 mM EGTA, 2 mM DTT. The final 10 μL Kinase Reaction consists of 1.1-5.25 ng EGFR (ErbB1) and 2 μM […] in 50 mM HEPES pH 7.5, 0.01% BRIJ-35, 10 mM MgCl2, 2 mM MnCl2, 1 mM EGTA, 1 mM DTT. After the 1 hour Kinase Reaction incubation, 5 μL of a 1:64 dilution of Development Reagent B is added. Reaction starts by 30-second shaking of mixture consisting of 2.5 μL 4× test compound, 5 μL 2× kinase reaction mixture and 2.5 μL 4×ATP Solution on Bar-coded Corning, low volume NBS, black 384-well plate (Corning Cat. #3676). […] Finally fluorescence is read by plate reader. […]

H1975 cells = assay: Inhibition of cancer cell growth, MTT assay, H1975; details: read-out: IC50 H1975, 72 h, EGFR L858R/T790M
Procedure: Inhibition of cell growth by compounds was measured using MTT assay (Mosmann, T., Journal of Immunological Methods, 1983, 65, 55-63). Tumor cell lines were purchased from ATCC (American Type Culture Collection, Manassas, Va.). All cell lines were maintained in RPMI 1640 (Hyclone) supplemented with 10% fetal bovine serum (FBS, Hyclone), glutamine (2 mM, Hyclone), and antibiotics (penicillin 100 U/mL and streptomycin 50 μg/mL) at 37° C. in a humidified atmosphere of 5% CO2 in air. Taxol (as a positive control, Sigma) and compounds were dissolved in DMSO (Sigma), and the final concentration of DMSO in the medium was 1%. Tumor cells were plated in 96-well plates at densities of about 4000 cells/well of a 96-well plate and allowed to adhere/grow for 24 h. They were then treated with various concentrations of drug for 72 h. […] The number of cells remaining after 72 h was compared to the number of viable cells at the time of compound addition by measuring the absorbance at 570 nm, allowing for the calculation of growth inhibition.
All concentrations of compounds were tested in triplicate and controls were averaged over 4 wells. IC50 was calculated by plotting the concentration of compound vs the percentage of inhibition in treated wells using GraphPad Prism 5. […]

Sequence of EGFR (ErbB1) T790M L858R (P00533 25-1210 T790M/L858R): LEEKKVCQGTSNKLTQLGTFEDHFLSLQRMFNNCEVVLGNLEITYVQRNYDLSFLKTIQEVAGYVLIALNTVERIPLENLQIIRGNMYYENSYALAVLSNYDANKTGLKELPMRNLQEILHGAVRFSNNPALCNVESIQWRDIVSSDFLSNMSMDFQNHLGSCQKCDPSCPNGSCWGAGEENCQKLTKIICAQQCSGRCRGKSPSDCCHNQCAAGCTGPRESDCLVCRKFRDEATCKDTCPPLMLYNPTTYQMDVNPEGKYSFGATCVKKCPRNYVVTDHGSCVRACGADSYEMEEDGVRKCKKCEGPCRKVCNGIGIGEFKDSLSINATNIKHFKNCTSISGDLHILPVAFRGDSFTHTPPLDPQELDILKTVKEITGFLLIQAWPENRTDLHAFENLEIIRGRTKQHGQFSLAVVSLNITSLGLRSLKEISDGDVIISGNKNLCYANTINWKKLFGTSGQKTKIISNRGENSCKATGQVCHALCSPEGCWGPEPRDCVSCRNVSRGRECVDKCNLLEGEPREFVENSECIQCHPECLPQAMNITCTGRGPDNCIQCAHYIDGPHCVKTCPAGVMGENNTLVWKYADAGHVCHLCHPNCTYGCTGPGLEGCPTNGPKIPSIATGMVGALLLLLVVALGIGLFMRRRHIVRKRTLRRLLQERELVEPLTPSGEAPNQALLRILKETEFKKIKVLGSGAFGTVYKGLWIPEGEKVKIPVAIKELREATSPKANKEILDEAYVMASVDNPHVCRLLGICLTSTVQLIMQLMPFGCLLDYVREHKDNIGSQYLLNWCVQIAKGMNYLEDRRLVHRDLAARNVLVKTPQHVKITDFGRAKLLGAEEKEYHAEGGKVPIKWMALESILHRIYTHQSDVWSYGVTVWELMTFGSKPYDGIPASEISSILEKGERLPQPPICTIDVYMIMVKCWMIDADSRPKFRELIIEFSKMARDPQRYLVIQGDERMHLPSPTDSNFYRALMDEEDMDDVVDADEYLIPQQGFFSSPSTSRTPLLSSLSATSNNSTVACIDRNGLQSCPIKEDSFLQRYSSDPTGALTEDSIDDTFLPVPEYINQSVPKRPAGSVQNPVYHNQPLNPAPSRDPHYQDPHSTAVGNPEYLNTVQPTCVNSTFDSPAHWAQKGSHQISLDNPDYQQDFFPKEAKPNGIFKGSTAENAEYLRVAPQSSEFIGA

Compound	inhibition at 0.0137 µM (EGFR (ErbB1) T790M L858R)	Tumor Volume Post-treatment (H1975 tumor xenograft)	Tumor Volume Pre-treatment (H1975 tumor xenograft)	% inhibition EGFR (Compound at 0.041 μM) (EGFR (ErbB1))	% inhibition EGFR L858R/T790M (Compound at 0.0137 μM) (EGFR (ErbB1) T790M L858R)	IC50 (H1975 cells)
C=CC(=O)Nc1cccc(-c2cccc3cnc(Nc4ccc(N5CCN(CCO)CC5)c(F)c4F)nc23)c1 [Example C151, N-(3-(2-((2,3-difluoro-4-(4-(2-hydroxyethyl)piperazin-1-yl)phenyl)amino)quinazolin-8-yl)phenyl)acrylamide]	> 50%	462 mm^3	229 mm^3			
C=CC(=O)Nc1cccc(-c2cccc3cnc(Nc4ccc(N5CCN(CC(N)=O)CC5)c(F)c4)nc23)c1 [Example C164]				+ (less than 50% inhibition)	+ (less than 50% inhibition)	100 to 500 nM
C=CC(=O)Nc1cccc(-c2cccc3cnc(Nc4ccc(N5CCN(C)CC5)c(F)c4F)nc23)c1 [Example C156, N-(3-(2-((2,3-difluoro-4-(4-methylpiperazin-1-yl)phenyl)amino)quinazolin-8-yl)phenyl)acrylamide]		594 mm^3	232 mm^3			
C=CC(=O)Nc1cccc(-c2cccc3cnc(Nc4ccc(N5CCN(CC(N)=O)CC5)cc4F)nc23)c1 [Example C154]				+ (less than 50% inhibition)	+ (less than 50% inhibition)	100 to 500 nM
C=CC(=O)Nc1cccc(-c2cccc3cnc(Nc4ccc(N5CCN(CCO)CC5)cc4F)nc23)c1 [Example C147, N-(3-(2-((2-fluoro-4-(4-(2-hydroxyethyl)piperazin-1-yl)phenyl)amino)quinazolin-8-yl)phenyl)acrylamide]	> 50%	898 mm^3	240 mm^3			
